The values below come from PMC2864539 (Cancer research, 2010).

Bounds are passed on as bounds.

One experiment concerns the target T1, ovine COX-1 (Ovis aries, UniProt P05979).
T1 sequence (P05979 25-600): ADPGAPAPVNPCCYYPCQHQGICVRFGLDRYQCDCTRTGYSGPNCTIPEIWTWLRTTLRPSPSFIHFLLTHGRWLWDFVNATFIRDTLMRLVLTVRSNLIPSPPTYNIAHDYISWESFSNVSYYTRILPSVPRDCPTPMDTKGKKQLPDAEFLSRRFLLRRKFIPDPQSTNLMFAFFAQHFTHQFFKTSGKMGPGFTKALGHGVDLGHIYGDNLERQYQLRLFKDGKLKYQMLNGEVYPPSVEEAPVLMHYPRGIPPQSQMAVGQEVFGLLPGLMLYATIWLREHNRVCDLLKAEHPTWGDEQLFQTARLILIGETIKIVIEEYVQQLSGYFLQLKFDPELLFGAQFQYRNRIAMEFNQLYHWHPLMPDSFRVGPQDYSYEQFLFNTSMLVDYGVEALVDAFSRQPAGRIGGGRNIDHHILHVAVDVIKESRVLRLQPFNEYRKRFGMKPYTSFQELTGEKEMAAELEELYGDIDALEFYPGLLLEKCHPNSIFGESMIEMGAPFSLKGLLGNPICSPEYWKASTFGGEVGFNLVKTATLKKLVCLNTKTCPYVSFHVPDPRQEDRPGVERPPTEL
The experiment is described as follows: [[…]-14C]arachidonic acid conversion, radio-TLC. It counts as biochemical.

The next experiment deals with T2, human COX-2 (Homo sapiens, UniProt P35354).
T2 sequence (P35354 18-604): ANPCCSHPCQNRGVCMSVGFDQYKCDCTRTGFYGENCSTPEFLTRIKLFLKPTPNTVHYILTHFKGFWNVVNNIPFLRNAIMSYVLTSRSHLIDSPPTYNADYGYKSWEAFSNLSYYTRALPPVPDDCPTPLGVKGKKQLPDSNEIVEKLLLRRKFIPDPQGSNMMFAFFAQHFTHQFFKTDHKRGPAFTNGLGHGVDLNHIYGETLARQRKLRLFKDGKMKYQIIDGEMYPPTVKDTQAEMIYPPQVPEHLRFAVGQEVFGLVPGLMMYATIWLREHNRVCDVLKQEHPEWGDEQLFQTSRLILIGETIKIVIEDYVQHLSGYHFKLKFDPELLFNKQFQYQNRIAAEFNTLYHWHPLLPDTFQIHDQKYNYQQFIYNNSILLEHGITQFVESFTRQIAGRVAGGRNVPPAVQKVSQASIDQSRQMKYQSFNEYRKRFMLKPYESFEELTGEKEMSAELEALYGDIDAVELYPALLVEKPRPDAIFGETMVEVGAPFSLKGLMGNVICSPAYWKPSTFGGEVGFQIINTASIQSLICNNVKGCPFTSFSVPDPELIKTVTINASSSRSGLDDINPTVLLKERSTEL
The experiment is described as follows: [[…]-14C]arachidonic acid conversion, radio-TLC. It is filed as biochemical.

As a reminder, the IC50 is the midpoint of a concentration-inhibition curve. A high value points to lower potency. For the compound `COc1ccc2c(c1)c(CC(=O)NCCNC(=O)c1ccc(C(=O)[O-])c(C3=c4cc5c6c(c4Oc4c3cc3c7c4CCCN7CCC3)CCC[N+]=6CCC5)c1)c(C)n2C(=O)c1ccc(Cl)cc1` [compound 3], the IC50 on ovine COX-1 was over 66 µM; against human COX-2, over 4 µM.
